What is called IC50 is the concentration that gives 50% inhibition. The AC50 is the concentration giving half of the maximal activity seen.

The structures appear in SMILES notation. Like-named read-outs stand apart in the source and are kept apart here.

One experiment deals with HTT mRNA. Kind of experiment: RT-qPCR splicing assay, HTT canonical (CJ) and alternative (AJ) junction mRNA. It counts as cell-based. Conditions: Homo sapiens; for IC50: read-out: HTT CJ IC50; for AC50: increase in alternative junction mRNA, read-out: HTT AJ AC50. In a few lines:
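Splice-junction mRNAs (CJ, AJ) measured by TaqMan one-step RT-qPCR on cell lysates, using PPIA as reference for adherent A673 and GAPDH or GUSB for K562. Cells exposed for 24 h to 11 threefold concentrations up to 10 uM final, with DMSO at or below 0.25%.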
(Real-time PCR tracks product formation cycle by cycle.)

The next experiment has as its system Target C. Kind of experiment: RT-qPCR splicing assay, gene panel, Target C canonical junction (CJ) mRNA. To be noted: Homo sapiens; decrease in CJ mRNA levels; larger panel of genes; Table 3; read-out: Target C CJ IC50. The experiment is classed as cell-based. In a few lines: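 A673 (DMEM/10% FBS) or K562 (IMDM/10% FBS) cells were treated 24 h at 37 °C with an 11-point 3-fold dilution series, top final 10 uM, DMSO ≤0.25%. Lysates underwent one-step RT-qPCR for the canonical-junction isoform with GAPDH, GUSB or PPIA as housekeeper. ΔΔCt versus DMSO was converted to RQ (2^−ΔΔCt), then to percent response.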

Where [1] appears, read: decrease in CJ mRNA levels, larger panel of genes, Table 3.
Setting [2] is: decrease in canonical junction mRNA, A673 or K562 cells, 24 hours treatment, Table 2.
The mark [3] stands for this setting: A673 or K562 cells, 24 hours treatment, Table 2.

Take `Cc1cc(-n2cc3cc(C4CCNCC4)cc(F)c3n2)cc2cn(C)nc12` [Compound 115, 2-(2,7-dimethylindazol-5-yl)-7-fluoro-5-(4-piperidyl)indazole]: the IC50 with HTT mRNA (setting [1]), with HTT mRNA (setting [2]) and in the experiment on Target C was 1000 to 10000 nM throughout. In the experiment with HTT mRNA (setting [3]), the half-maximal activity concentration (AC50) fell in the range of 1000 to 10000 nM.

On to `Cc1ncc2cc(-c3cc(F)c4nn(C5CCNCC5)cc4c3)ccc2n1` [Compound 165, 6-[7-fluoro-2-(4-piperidyl)indazol-5-yl]-2-methyl-quinazoline], for which the IC50 in the experiment on HTT mRNA (setting [1]), with HTT mRNA (setting [2]) and with Target C was > 10000 nM each time. Moreover, the AC50 in the experiment with HTT mRNA (setting [3]) is > 10000 nM.

With `CCN1CCC(n2cc3cc(-c4cc(C)c5nc(C)cn5n4)cc(F)c3n2)CC1` [Compound 146, 6-[2-(1-ethyl-4-piperidyl)-7-fluoro-indazol-5-yl]-2,8-dimethyl-imidazo[1,2-b]pyridazine], the values for the IC50 in the experiment with HTT mRNA (setting [1]), with HTT mRNA (setting [2]) and with Target C were < 100 nM, < 100 nM and 100 to 1000 nM, respectively. The AC50 with HTT mRNA (setting [3]) is < 100 nM.

Consider `Cc1cn2nc(-c3cc(F)c4nn(C5CCN(CC6CC6)C6(CC6)C5)cc4c3)cc(C)c2n1` (stereo not shown) [Compound 183, 6-[2-[4-(cyclopropylmethyl)-4-azaspiro[2.5]octan-7-yl]-7-fluoro-indazol-5-yl]-2,8-dimethyl-imidazo[1,2-b]pyridazine], for which the IC50 with HTT mRNA (setting [1]), in the experiment on HTT mRNA (setting [2]) and in the experiment with Target C was < 100 nM each time. Moreover, the AC50 in the experiment with HTT mRNA (setting [3]) is < 100 nM.

As to `Cc1cn2nc(-c3cc(F)c4nn([C@H]5CCNC[C@@H]5F)cc4c3)cc(C)c2n1` [Compound 167, 6-(7-fluoro-2-((3S,4S)-3-fluoropiperidin-4-yl)-2H-indazol-5-yl)-2,8-dimethylimidazo[1,2-b]pyridazine], the IC50 in the experiment with HTT mRNA (setting [1]), with HTT mRNA (setting [2]) and in the experiment on Target C was 100 to 1000 nM throughout. In addition, the AC50 in the experiment on HTT mRNA (setting [3]) is 100 to 1000 nM.

Turning to `Cc1cn2nc(-c3cc4cn(C5CCNCC5)nc4cc3O)cc(C)c2n1` [Compound 154, 5-(2,8-dimethylimidazo[1,2-b]pyridazin-6-yl)-2-(piperidin-4-yl)-2H-indazol-6-ol], the IC50 was < 100 nM in the experiment on HTT mRNA (setting [1]), < 100 nM in the experiment on HTT mRNA (setting [2]) and 100 to 1000 nM with Target C. Besides, the AC50 with HTT mRNA (setting [3]) was 100 to 1000 nM.

Take `Cc1cn2nc(-c3cc(F)c4nn(C5CCN(CC6CC6)CC5)cc4c3)cc(C)c2n1` [Compound 149, 6-[2-[1-(cyclopropylmethyl)-4-piperidyl]-7-fluoro-indazol-5-yl]-2,8-dimethyl-imidazo[1,2-b]pyridazine]: the IC50 in the experiment on HTT mRNA (setting [1]), in the experiment with HTT mRNA (setting [2]) and in the experiment with Target C was < 100 nM in each case. The AC50 with HTT mRNA (setting [3]) was < 100 nM.

These data come from patent publication US20250082633A1, “COMPOUNDS AND METHODS FOR MODULATING SPLICING” (REMIX THERAPEUTICS INC., priority 2021, published 2025).
